Values of other authors, collected in patent US10208167B2, “Cyclodextrins with one or more poly(ethylene glycol) units, inclusion compounds and drug delivery vehicles including the same, and methods of making and using the same” (The Board of Trustees of the California State University, priority 2015, dated 2019).

How the values were obtained:
[1] = system: human salivary and pancreatic amylases
[2] = system: intestinal microflora

Compound | hydrolysis by human salivary and pancreatic amylases [1] | fermentation in the intestinal microflora [2]
OC[C@H]1O[C@@H]2O[C@H]3[C@H](O)[C@@H](O)[C@@H](O[C@H]4[C@H](O)[C@@H](O)[C@@H](O[C@H]5[C@H](O)[C@@H](O)[C@@H](O[C@H]6[C@H](O)[C@@H](O)[C@@H](O[C@H]7[C@H](O)[C@@H](O)[C@@H](O[C@H]8[C@H](O)[C@@H](O)[C@@H](O[C@H]9[C@H](O)[C@@H](O)[C@@H](O[C@H]1[C@H](O)[C@H]2O)O[C@@H]9CO)O[C@@H]8CO)O[C@@H]7CO)O[C@@H]6CO)O[C@@H]5CO)O[C@@H]4CO)O[C@@H]3CO [γ-CD, γ-cyclodextrin] | not hydrolyzed | –
OC[C@H]1O[C@@H]2O[C@H]3[C@H](O)[C@@H](O)[C@@H](O[C@H]4[C@H](O)[C@@H](O)[C@@H](O[C@H]5[C@H](O)[C@@H](O)[C@@H](O[C@H]6[C@H](O)[C@@H](O)[C@@H](O[C@H]7[C@H](O)[C@@H](O)[C@@H](O[C@H]1[C@H](O)[C@H]2O)O[C@@H]7CO)O[C@@H]6CO)O[C@@H]5CO)O[C@@H]4CO)O[C@@H]3CO [α-CD, α-cyclodextrin] | not hydrolyzed | can be fermented
